Assay results from patent publication US10577362B2, “Substituted 2, 4-diamino-quinoline derivatives for use in the treatment of proliferative diseases” (GENOSCIENCE PHARMA, priority 2016, dated 2020).
pEC50: −log10 of the molar value.

Key:
[1] = tested on: MOLM-14 (acute myeloid leukemia) cell line; test: CellTiter-Glo luminescent cell viability assay, MOLM-14; format: cell-based, human; conditions: Homo sapiens; for viability at 4 µM: MOLM-14, compound at 4 μM; for viability at 4 µM / viability at 10 µM: 72 h; for viability at 10 µM: MOLM-14, compound at 10 μM; for pEC50: MOLM-14 cell line, 72 h incubation, CellTiter-Glo, read-out: EC50, growth inhibition of MOLM-14
How it was run: (§1)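 72 h compound exposure, 37 °C, 5% CO2, 10% FBS medium; ATP luminescence read after 30 min RT equilibration. Viability as % of H2O/DMSO diluent control; EC50 = dose giving 50% of control signal. Duplicate points minimum.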

[2] = tested on: A375 (malignant melanoma) cell line; test: CellTiter-Glo luminescent cell viability assay, A375; format: cell-based, human; conditions: Homo sapiens, A-375; for viability at 4 µM: A375, compound at 4 μM; for viability at 4 µM / viability at 10 µM: 72 h; for viability at 10 µM: A375, compound at 10 μM; for pEC50: A375 cell line, 72 h incubation, CellTiter-Glo, read-out: EC50, growth inhibition of A375
How it was run: (§2)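 Cells were cultured at 37 °C, 5% CO2 with 10% FBS; adherent lines were plated overnight, suspension MOLM-14 plated 1 h before dosing. Compounds in H2O or DMSO were added at various concentrations for 72 h, and viability was read by luminescence. EC50 is the dose reducing signal to 50% of diluent control.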

[3] = tested on: HCT-116 (colorectal carcinoma) cell line; test: CellTiter-Glo luminescent cell viability assay, HCT-116; format: cell-based, human; conditions: Homo sapiens; for viability at 4 µM: HCT-116, compound at 4 μM; for viability at 4 µM / viability at 10 µM: 72 h; for viability at 10 µM: HCT-116, compound at 10 μM; for pEC50: HCT-116 cell line, 72 h incubation, CellTiter-Glo, read-out: EC50, growth inhibition of HCT-116
How it was run: as §2

[4] = tested on: Huh7 (hepatocellular carcinoma) cell line; test: CellTiter-Glo luminescent cell viability assay, Huh7; format: cell-based, human; conditions: Homo sapiens, Huh-7; for viability at 4 µM: Huh7, compound at 4 μM; for viability at 4 µM / viability at 10 µM: 72 h; for viability at 10 µM: Huh7, compound at 10 μM; for pEC50: Huh7 cell line, 72 h incubation, CellTiter-Glo, read-out: EC50, growth inhibition of Huh7
How it was run: as §1

[5] = tested on: 786-O (renal adenocarcinoma) cell line; test: CellTiter-Glo luminescent cell viability assay, 786-O; format: cell-based, human; conditions: Homo sapiens, 786-0; for pEC50: 786-O cell line, 72 h incubation, CellTiter-Glo, read-out: EC50, growth inhibition of 786-O; for viability at 4 µM / viability at 10 µM: 786-O, 72 h; for viability at 4 µM: compound at 4 μM; for viability at 10 µM: compound at 10 μM
How it was run: as §2

[6] = tested on: HepG2 (hepatocellular carcinoma) cell line; test: CellTiter-Glo luminescent cell viability assay, HepG2; format: cell-based, human; conditions: Homo sapiens; for viability at 4 µM / viability at 10 µM: HepG2, HepG, 72 h; for viability at 4 µM: compound at 4 μM; for viability at 10 µM: compound at 10 μM; for pEC50: HepG2 cell line, 72 h incubation, CellTiter-Glo, read-out: EC50, growth inhibition of HepG2
How it was run: as §1

[7] = tested on: PANC-1 (prancreatic carcinoma) cell line; test: CellTiter-Glo luminescent cell viability assay, PANC-1; format: cell-based; conditions: Homo sapiens; for viability at 4 µM: PANC-1, 4 μM; for viability at 4 µM / viability at 10 µM: 72 h, % of signal of diluent-treated cultures; for viability at 10 µM: PANC-1, 10 μM; for pEC50: PANC-1 cell line, 72 h incubation, CellTiter-Glo, read-out: EC50 (growth inhibition assay of PANC-1 cell line)
How it was run: as §1

Row | pEC50 [1] | pEC50 [2] | pEC50 [3] | pEC50 [4] | pEC50 [5] | pEC50 [6] | SMILES | viability at 4 µM [1] [%] | viability at 10 µM [1] [%] | viability at 4 µM [2] [%] | viability at 10 µM [2] [%] | viability at 4 µM [3] [%] | viability at 10 µM [3] [%] | viability at 4 µM [4] [%] | viability at 10 µM [4] [%] | viability at 4 µM [5] [%] | viability at 10 µM [5] [%] | viability at 4 µM [6] [%] | viability at 10 µM [6] [%] | viability at 4 µM [7] [%] | viability at 10 µM [7] [%] | other results
1 | 5.00 to 5.30 | 5.30 to 6.30 | 5.00 to 5.30 | 5.00 to 5.30 | 5.00 to 5.30 | 5.00 to 5.30 | CC(C)(C)NC1CCN(c2c(C#N)c(NCc3ccccc3)nc3ccccc23)CC1 [Compound 3286CN, 2-(benzylamino)-3-cyano-4-[4-(tert-butylamino)piperidin-1-yl]quinoline] | 90.4 | 60.5 | 54.5 | 0.2 | 7.6 | 0.1 | 75.4 | 0.4 | 73.5 | 2.4 | 85 | 0.4 | 101 | 54.8 | pEC50 [7]: 5.00 to 5.30
2 |  |  |  |  |  |  | Cc1ccc(OC2CCN(c3c(C#N)c(NCc4ccc(Cl)cc4)nc4ccccc34)CC2)cc1 [Compound 2944CN, 2-(4-chlorobenzylamino)-3-cyano-4-[4-(p-tolyloxy)piperidin-1-yl]quinoline] | 104 | 92.1 | 96.9 | 87.1 | 32.8 | 29.1 | 93.9 | 89 | 96 | 95.5 | 107 | 84 | 111 | 112 | 
3 | 5.30 to 6.30 | 5.30 to 6.30 | 5.30 to 6.30 | 5.30 to 6.30 | 5.30 to 6.30 | 5.30 to 6.30 | Cc1ccc(CNc2nc3ccccc3c(N3CCC(NC(C)(C)C)CC3)c2C#N)cc1 [Compound 3288CN, 2-(4-methylbenzylamino)-3-cyano-4-[4-(tert-butylamino)piperidin-1-yl]quinoline] | 62.8 | 0.4 | 0.5 | 0.3 | 0.5 | 0.2 | 0.6 | 0.3 | 1.9 | 0.3 | 0.6 | 0.3 | 63.5 | 0.6 | pEC50 [7]: 5.00 to 5.30
